Measurements from patent publication US9623046B2, “Amphiphilic Janus-dendrimers” (The Trustees Of The University Of Pennsylvania, priority 2009, dated 2017).
Read-outs that look alike come from different tables or passages of the source.

Columns and labels:
[1] = Micropipette aspiration of giant unilamellar dendrosomes (mechanical properties); type: physicochemical
Method: The elastic properties of dendrosome membranes were determined by micropipette aspiration following an analogous procedure described previously (Needham, Biophys. J. 58, 997-1009 (1990)). Giant unilamelar (˜[…] diameter) dendrosomes were prepared by Teflon film hydration as described herein and dispersed into iso-osmotic ultrapure water. Glass micropipettes with inner diameter from ˜3 μm to ˜10 μm were filled with iso-osmotic ultrapure water and connected to an aspiration station mounted on the side of a Zeiss inverted microscope, equipped with a manometer. The pipettes were used to manipulate the dendrosomes and to apply well-defined stress to the wall by inducing suction tension on their membranes.
The micropipette suction pressure is controlled in the range of microatmospheres and tenths of atmospheres (0.1 N/m^2 to 10000 N/m^2). The tension results in deformation and consequently provides direct measurements of the elastic moduli, which characterizes the membrane area expansion and bending, together with other parameter that characterize the tensile failure of the vesicle membrane according to the equations (1) and (2): Ka=Δτ/Δα (1) Es=Ka(αc)^2/2 (2) were Ka=elastic area expansion modulus; Δτ=fractional tension; τs=membrane tension at failure; Δα=fractional increase in membrane area; αc=critical areal strain-fractional increase in membrane area at failure, and Es=energy stored at failure Results are presented in the Table below.

[2] = tested on: human umbilical vein endothelial cells (HUVECs); assay: Cell viability, CellTiter-Blue assay; type: cell-based; details: CellTiter-Blue, 1, 2 and 4 h, compared to control
Method: Since endothelial cells are the first point of contact for intravenous drug formulations, the toxicity of the dendrosomes was evaluated in vitro on human umbilical vein endothelial cells (HUVECs). HUVECs were cultured in EGM Endothelial Growth Media (LONZA) supplemented with bovine brain extract (BBE) with heparin, h-EGF, hydrocortisone, gentamicin, amphotericin B (GA-1000), and fetal bovine serum (FBS). Cells were maintained in plastic culture flasks at 37° C. in a humidified atmosphere containing 5% CO2 and were further subcultured when the flasks were 70% to 90% confluent. The passage number of the cells for the HUVECs in vitro studies was 5-8. The investigation of toxicity of dendrosomes and viability of the cells was assessed fluorometrically by determining the number of viable cells present in multiwell plates. Cell viability was determined using the indicator dye resazurin, which is reduced by viable cells to a highly fluorescent form resorufin according to Scheme S17. […] The CellTiter-Blue Cell Viability Assay was obtained from Promega.
HUVECs were plated at a density of 3,200 cells per well (10,000 cells/cm^2) in 96 well tissue culture plates and allowed to adhere overnight. Culture media was removed from the wells and replaced with 250 μL of either: 100% media, 94% media/6% PBS buffer, 87.5% media/12.5% PBS buffer, 75% media/25% PBS buffer, 100% PBS buffer, and various concentrations of sterile dendrosomes and polymersomes ranging from 0.25 mg to 0.0625 mg in the three concentrations of media/PBS, and maintained at 37° C. in a humidified atmosphere of 5% CO2. The dendrosomes and polymersomes were prepared by film the hydration method as described in section S5.1 and extruded 25 times through 100 nm polycarbonate membrane. Dendrosomes and polymersomes were sterilized by exposing them for […] min to UV irradiation. […] The fluorescence intensity at 590 nm emanating from the wells when excited at 560 nm was then determined using a TECAN Inifinite2000 plate reader.

Melittin = Melittin (Apis mellifera, UniProt P01501); details: Melittin 63 μL, 300 μM into 2 mL suspension
[3] = Dynamic light scattering of dendrosomes formed by ethanol injection (size, polydispersity); type: physicochemical
Method: Dynamic light scattering measurements (DLS) were performed with a Malvern Instruments particle sizer (Zetasizer® Nano S, Malvern Instruments, UK).
Small unilamellar dendrosomes of <200 nm size were obtained by fast injection of 100 μL of ethanol (THF, acetone, dioxane, acetonitrile or DMSO for the solvent dependence studies) solution containing 10 mg of Janus-dendrimer dissolved in 1 mL of solvent into various volumes of milippore water (0.5 mL-5 mL) giving final Janus-dendrimer concentrations of 0.1-2 mg/mL. Dendrosomes obtained via injection method were used without further manipulation to study the influence of concentration, solvent, temperature and time on size and polydispersity by dynamic light scattering (DLS) as well as for the characterization of dendrosome morphologies via cryogenic transmission electron microscopy (cryo-TEM).
Dendrosomes were formed according to the general method discussed herein at final concentrations from 0.5-20 mg/mL. DLS measurements were carried out immediately following injection and repeated after 60 min. […] Monomodal distributions were obtained from 0.5-7 mg/mL and bimodal distributions from 10-20 mg/mL. […] At concentrations over […], multimodal size distributions and increased flocculation in time was observed.
Dendrosomes were formed according to the general method discussed herein at final concentrations of 0.5 mg/mL aqueous solution.

[4] = polymersomes and lipids (liposomes), comparison; cited from earlier work
[5] = Miscibility of Janus-dendrimers with phospholipids (microscopy, DSC); type: physicochemical; details: 1:1 ratio, film hydration
[6] = concentrations of 0.5-2 mg/mL, unimodal distributions

Sequence of Melittin (P01501 44-69 limits assumed): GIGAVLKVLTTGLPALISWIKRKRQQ

| Molecule | Critical αc (critical areal strain) [1] | Energy stored at failure [1] [mJ/m^2] | Ka (elastic area expansion modulus) [1] [mN/m] | Lysis Tension τs [1] [mN/m] | cell viability / toxicity [2] | further results |
| --- | --- | --- | --- | --- | --- | --- |
| (3,4,5)12G1-PE-BMPA-G2-(OH)8 [(3,4,5)12G1-PE-BMPA-(OH)8] | 0.06 | 0.11 | 42.44 | 0.88 |  |  |
| (3,4,5)12G1-PE-(3,4,5)-3EO-G1-(OH)6 | 0.04 | 0.27 | 267.5 | 12.7 | excellent biocompatibility |  |
| (3,4)12G1-PE-(3,4,5)-3EO-G1-(OCH3)6 [Dendrosome 1] |  |  |  |  | excellent biocompatibility |  |
| (3,5)12G1-PE-(3,4)-3EO-G1-(OH)4 | 0.06 | 0.73 | 582.5 | 15.11 |  |  |
| CCCCCCCC/C=C\CCCCCCCC(=O)O[C@H](COC(=O)CCCCCCCCCCCCCCCCC)COP(=O)([O-])OCC[N+](C)(C)C [SOPC, 1-Stearoyl-2-Oleoyl-Sn-Glycero-3-Phosphatidylcholine, reference compound] |  |  |  |  |  | CD signal after Melittin addition (Melittin): showed CD signal |
| (3,4)12G1-PE-BMPA-G2-(OH)8 [(3,4)12G1-PE-BMPA-(OH)8] | 0.04 | 0.42 | 961 | 20.4 |  | PDI [3, 6]: 0.07-0.2; sizes [3, 6]: 111-175 nm |
| CCCCCCCCCCCCCC(=O)OC[C@H](COP(=O)([O-])OCC[N+](C)(C)C)OC(=O)CCCCCCCCCCCCC [DMPC] |  |  |  |  |  | Ka (elastic area expansion modulus) [4]: 234 mN/m |
| (3,5)12G1-PE-BMPA-G2-(OH)8 [(3,5)12G1-PE-BMPA-(OH)8] | 0.03 | 0.69 | 976 | 15.5 |  | CD signal after Melittin addition (Melittin): showed CD signal; miscibility with SOPC [5]: confirmed by DSC; Z-average size ([3]; concentration 0.5 mg/mL): 94 nm; polydispersity ([3]; concentration 0.5 mg/mL): 0.04; Z-average size ([3]; concentration 10 mg/mL): 330 nm; polydispersity ([3]; concentration 10 mg/mL): 0.17; PDI ([3]; concentration of 20 mg/mL): 0.4; sizes ([3]; concentration of 20 mg/mL): 1004 nm; sizes ([3]; concentrations of 0.5-10 mg/mL): 94-330 nm |
| DAPC |  |  |  |  |  | Critical αc (critical areal strain) [4]: 0.04; Ka (elastic area expansion modulus) [4]: 57 mN/m; Lysis Tension τs [4]: 2.3 mN/m |
| (3,5)12G1-PE-(3,4,5)-3EO-G1-(OCH3)6 [Dendrosome 2] |  |  |  |  | excellent biocompatibility |  |
